Experimental data reported in patent publication US20220281825A1 (priority 2016, published 2022).

Assays:
hERG channel = hERG channel (Homo sapiens, UniProt Q12809); conditions: pH 7.4
in vivo = conditions: guinea pig, po, 10 mg/kg
[1] = guinea pig, in vivo, 10 mg/kg
TCRV-p = assay: organism not typed; assay type: cell-based; conditions: Vero, 24 h, read-out: TCRV-p EC50 (nM)
[2] = 1 h, pH 7.4
LASV-p = assay: organism not typed; assay type: cell-based, Lassa (LASV); conditions: Vero, 24 h, read-out: LASV-p EC50 (nM)
[3] = 1 h, pH 7.4; remark: listed apart in the source
GTOV-p = assay: organism not typed; assay type: cell-based, Guanarito (GTOV); conditions: Vero, 24 h, read-out: GTOV-p EC50 (nM)
in vitro = conditions: African green monkey
[4] = 1 h, pH 7.4; remark: listed apart in the source
[5] = 1 h, pH 7.4; remark: listed apart in the source
JUNV-p = assay: organism not typed; assay type: cell-based, Junin (JUNV); conditions: Vero, 24 h, read-out: JUNV-p EC50 (nM)
MACV-p = assay: organism not typed; assay type: cell-based, Machupo (MACV); conditions: Vero, 24 h, read-out: MACV-p EC50 (nM)
[6] = guinea pig, 1 h, pH 7.4
[7] = 1 h, pH 7.4; remark: listed apart in the source
LASV = assay: organism not typed; assay type: cell-based, Lassa (LASV); conditions: for EC50: 120 h, read-out: LASV EC50 uM
JUNV = assay: organism not typed; assay type: cell-based, Junin (JUNV); conditions: for EC50: 120 h, read-out: JUNV EC50 uM
LCMV = assay: microbe, parasite or virus in culture; assay type: cell-based, lymphocytic choriomeningitis virus (LCMV); conditions: for EC90: Mammarenavirus choriomeningitidis, read-out: LCMV EC90 uM
VSV-p = assay: microbe, parasite or virus in culture; assay type: cell-based; conditions: Vesicular stomatitis virus, Vero, 24 h, read-out: VSV-p EC50 (nM)
[8] = system: native replicating Tacaribe (TCRV) virus; assay: microbe, parasite or virus in culture; assay type: cell-based; conditions: for EC50: Mammarenavirus tacaribeense, Vero, 120 h, read-out: TCRV EC50 uM

Sequence of hERG channel (Q12809 whole entry): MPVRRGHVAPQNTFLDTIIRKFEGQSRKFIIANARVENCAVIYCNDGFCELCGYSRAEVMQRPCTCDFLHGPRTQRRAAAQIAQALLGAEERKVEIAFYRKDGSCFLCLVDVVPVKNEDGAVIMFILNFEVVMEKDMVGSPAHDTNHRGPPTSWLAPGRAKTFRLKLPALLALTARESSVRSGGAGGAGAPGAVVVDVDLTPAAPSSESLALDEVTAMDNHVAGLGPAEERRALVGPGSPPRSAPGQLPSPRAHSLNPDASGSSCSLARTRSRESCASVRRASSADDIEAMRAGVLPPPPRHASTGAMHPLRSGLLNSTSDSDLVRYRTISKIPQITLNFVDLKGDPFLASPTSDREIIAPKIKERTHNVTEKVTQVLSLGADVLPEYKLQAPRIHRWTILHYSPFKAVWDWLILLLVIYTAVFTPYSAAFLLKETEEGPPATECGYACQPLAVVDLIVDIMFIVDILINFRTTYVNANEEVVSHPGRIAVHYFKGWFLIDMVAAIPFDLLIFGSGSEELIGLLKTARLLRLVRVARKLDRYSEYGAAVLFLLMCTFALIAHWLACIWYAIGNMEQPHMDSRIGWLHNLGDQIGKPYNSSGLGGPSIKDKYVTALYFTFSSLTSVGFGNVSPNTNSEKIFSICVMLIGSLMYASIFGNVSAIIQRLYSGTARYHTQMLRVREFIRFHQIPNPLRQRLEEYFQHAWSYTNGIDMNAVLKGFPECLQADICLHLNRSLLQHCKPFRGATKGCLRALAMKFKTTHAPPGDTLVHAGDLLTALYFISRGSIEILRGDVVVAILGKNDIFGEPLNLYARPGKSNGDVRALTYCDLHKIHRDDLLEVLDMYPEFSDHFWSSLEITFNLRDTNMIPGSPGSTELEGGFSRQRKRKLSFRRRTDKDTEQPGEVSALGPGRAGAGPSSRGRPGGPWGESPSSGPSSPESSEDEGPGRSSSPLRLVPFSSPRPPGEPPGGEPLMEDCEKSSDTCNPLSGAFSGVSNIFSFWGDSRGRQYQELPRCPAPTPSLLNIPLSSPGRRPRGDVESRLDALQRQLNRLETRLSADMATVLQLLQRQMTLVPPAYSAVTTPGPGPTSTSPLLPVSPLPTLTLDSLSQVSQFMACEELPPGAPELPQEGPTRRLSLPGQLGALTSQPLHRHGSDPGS

SMILES | hERG % Inhibition (hERG channel) [%] | Cmax (in vivo) [ng/mL] | Tmax (in vivo) [h] | oral exposure [1] | EC50 (TCRV-p) [nM] | Percent parent compound remaining at 60 minutes in liver microsomes, Human [2] [%] | EC50 (LASV-p) [nM] | EC50 (GTOV-p) [nM] | CC50 (in vitro) [µM] | Percent parent compound remaining at 60 minutes in liver microsomes, Rat [4] [%] | Percent parent compound remaining at 60 minutes in liver microsomes, Mouse [5] [%] | EC50 (JUNV-p) [nM] | EC50 (MACV-p) [nM] | Percent parent compound remaining at 60 minutes in liver microsomes, Guinea [6] [%] | Percent parent compound remaining at 60 minutes in liver microsomes, Monkey [7] [%] | LASV SI (LASV) | EC50 (LASV) [µM] | JUNV SI (JUNV) | EC50 (JUNV) [µM] | LCMV SI90 (LCMV) | further results
CC(C)Oc1ccc(-c2ccc3ncc(-c4ccc(OC(C)C)cc4)n3c2)cc1 [Example C2, 3,6-bis[4-(propan-2-yloxy)phenyl]imidazo[1,2-a]pyridine] | 89 | 156 | 1 | demonstrated oral exposure | – | – | – | – | – | – | – | – | – | – | – | – | – | – | – | – | –
Cc1c(-c2ccc(OC(C)C)cc2)ccc2ncc(-c3ccc(OC(C)C)cc3)n12 [Example C51, 5-methyl-3,6-bis[4-(propan-2-yloxy)phenyl]imidazo[1,2-a]pyridine] | 49 | – | – | – | 0.37 | 100 | 0.31 | 0.21 | 4.19 | 75 | 92 | 0.15 | 0.13 | 95 | 21 | – | – | – | – | – | Percent parent compound remaining at 60 minutes in liver microsomes, Dog [3]: 82%
CC(C)Oc1ccc(-c2cnc3ccc(-c4ccc(C(C)(C)O)cc4)cn23)cc1 [Example C1, 2-(4-{3-[4-(propan-2-yloxy)phenyl]imidazo[1,2-a]pyridin-6-yl}phenyl)propan-2-ol] | 55 | – | – | – | 1.45 | 76 | 0.59 | 0.08 | 7.52 | 77 | 22 | 0.82 | 0.7 | 42 | 16 | 921 | 0.025 | 352 | 0.055 | 37 | EC90 (LCMV): 0.82 µM; EC50 (VSV-p): > 1000 nM; TCRV SI50 [8]: 2500; EC50 [8]: 0.003 µM
CC(C)Oc1ccc(-n2cnc3ccc(-c4ccc(C(C)(C)O)cc4)cc32)cc1 [Example A17, 2-(4-{1-[4-(propan-2-yloxy)phenyl]-1H-1,3-benzodiazol-6-yl}phenyl)propan-2-ol] | – | 639 | 1 | demonstrated oral exposure | 0.6 | 69 | 1.1 | 0.52 | 5.81 | 86 | 44 | 0.2 | 0.2 | 62 | 7 | 249 | 0.06 | 82 | 0.115 | 12 | half-life (in vivo): 240 to 360 min; EC90 (LCMV): 0.71 µM; EC50 (VSV-p): > 1000 nM; T ½ ([1]; po): 4 to 6 h; TCRV SI50 [8]: 609; EC50 [8]: 0.023 µM
